# Experimental data reported in US8450305B2, “Macrocyclic compounds useful as inhibitors of kinases and HSP90” (Universite de Strasbourg, priority 2006, dated 2013).
# Legend:
# SAK = target: T1, SAK (Homo sapiens, UniProt O00444); test: Radiometric protein kinase assay, SAK; assay type: biochemical; details: 1 μM ATP; read-out: Inhibitory activity (IC50:μM) SAK
# T1 construct: host or cells: Sf9 insect cells (baculovirus)
# T1 sequence (O00444 1-970): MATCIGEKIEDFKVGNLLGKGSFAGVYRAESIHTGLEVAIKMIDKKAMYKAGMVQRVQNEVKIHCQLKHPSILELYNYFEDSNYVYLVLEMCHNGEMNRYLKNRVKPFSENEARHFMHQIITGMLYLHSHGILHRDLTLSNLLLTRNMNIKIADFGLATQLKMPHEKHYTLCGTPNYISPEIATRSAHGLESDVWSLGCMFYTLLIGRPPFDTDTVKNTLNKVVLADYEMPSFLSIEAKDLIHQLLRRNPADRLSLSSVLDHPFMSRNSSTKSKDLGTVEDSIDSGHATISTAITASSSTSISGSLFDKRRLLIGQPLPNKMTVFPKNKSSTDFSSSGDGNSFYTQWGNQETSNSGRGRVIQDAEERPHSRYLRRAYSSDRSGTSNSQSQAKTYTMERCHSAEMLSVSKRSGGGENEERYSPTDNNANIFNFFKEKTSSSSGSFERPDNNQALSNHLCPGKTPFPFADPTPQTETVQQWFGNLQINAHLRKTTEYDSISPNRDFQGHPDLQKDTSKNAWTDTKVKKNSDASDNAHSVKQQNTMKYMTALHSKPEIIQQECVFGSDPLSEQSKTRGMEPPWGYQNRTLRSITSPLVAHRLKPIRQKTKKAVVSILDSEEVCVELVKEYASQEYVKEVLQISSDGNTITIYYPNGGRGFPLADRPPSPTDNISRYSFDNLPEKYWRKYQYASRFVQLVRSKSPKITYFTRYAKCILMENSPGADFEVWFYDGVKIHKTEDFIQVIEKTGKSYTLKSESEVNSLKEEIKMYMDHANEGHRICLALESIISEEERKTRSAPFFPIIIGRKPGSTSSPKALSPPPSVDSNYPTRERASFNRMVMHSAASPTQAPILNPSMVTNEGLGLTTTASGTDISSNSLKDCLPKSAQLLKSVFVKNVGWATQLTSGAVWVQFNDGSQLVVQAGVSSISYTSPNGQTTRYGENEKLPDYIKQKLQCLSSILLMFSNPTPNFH
# From the text: (§1) All protein kinases were expressed in Sf9 insect cells as human recombinant GST-fusion proteins or His-tagged proteins by means of the baculovirus expression system. Kinases were purified by affinity chromatography using either GSH-agarose (Sigma) or Ni-NTH-agarose (Qiagen). The purity of each kinase was checked by SDS-PAGE/silver staining and the identity of each kinase was verified by western blot analysis with kinase specific antibodies or by mass spectroscopy.
# (§2) A radiometric protein kinase assay (^33PanQinase® Activity Assay) was used for measuring the kinase activity of the 24 protein kinases. All kinase assays were performed in 96-well FlashPlates™ from Perkin Elmer (Boston, Mass., USA) in a 50 μl reaction volume. The reaction cocktail was pipetted in 4 steps in the following order: • 20 μl of assay buffer • 5 μl of ATP solution (in H2O) • 5 μl of test compound (in 10% DMSO) • 10 μl of substrate/10 […] of enzyme solution (premixed)
# (§3) The assay for all enzymes contained 60 mM HEPES-NaOH, pH 7.5, 3 mM MgCl2, 3 mM MnCl2, 3 μM Na-orthovanadate, 1.2 mM DTT, 50 μg/ml PEG20000, 1 μM [γ-^33P]-ATP (approx. 5×10^05 cpm per well).
# (§4) For the 24 kinase assays, the following amounts of enzyme and substrate were used per well:
# (§5) The reaction cocktails were incubated at 30° C. for 80 minutes. The reaction was stopped with 50 μl of 2% (v/v) H3PO4, plates were aspirated and washed two times with 200 μl of 0.9% (w/v) NaCl or 200 μl H2O. Incorporation of ^33Pi was determined with a microplate scintillation counter (Microbeta Trilux, Wallac).
# (§6) The median value of the counts in column 1 (n=8) of each assay plate was defined as “low control”. This value reflects unspecific binding of radioactivity to the plate in the absence of a protein kinase but in the presence of the substrate. The median value of the counts in column 7 of each assay plate (n=8) was taken as the “high control”, i.e. full activity in the absence of any inhibitor. The difference between high and low control was taken as 100% activity.
# (§7) As part of the data evaluation the low control value from a particular plate was subtracted from the high control value as well as from all 80 “compound values” of the corresponding plate. The residual activity (in %) for each well of a particular plate was calculated by using the following formula: Res. Activity (%)=100×[(cpm of compound−low control)/(high control−low control)]
# (§8) The residual activities for each concentration and the compound IC50 values were calculated using Quattro Workflow V2.1.0.0 (Quattro Research GmbH, Munich, Germany; www.quattro-research.com). The model used was “Sigmoidal response (variable slope)” with parameters “top” fixed at 100% and “bottom” at 0%.
# FAK = target: T2, FAK (Homo sapiens, UniProt Q05397); test: Radiometric protein kinase assay, FAK; assay type: biochemical; details: 1 μM ATP; read-out: Inhibitory activity (IC50:μM) FAK
# T2 construct: host or cells: Sf9 insect cells (baculovirus)
# T2 sequence (Q05397 whole entry): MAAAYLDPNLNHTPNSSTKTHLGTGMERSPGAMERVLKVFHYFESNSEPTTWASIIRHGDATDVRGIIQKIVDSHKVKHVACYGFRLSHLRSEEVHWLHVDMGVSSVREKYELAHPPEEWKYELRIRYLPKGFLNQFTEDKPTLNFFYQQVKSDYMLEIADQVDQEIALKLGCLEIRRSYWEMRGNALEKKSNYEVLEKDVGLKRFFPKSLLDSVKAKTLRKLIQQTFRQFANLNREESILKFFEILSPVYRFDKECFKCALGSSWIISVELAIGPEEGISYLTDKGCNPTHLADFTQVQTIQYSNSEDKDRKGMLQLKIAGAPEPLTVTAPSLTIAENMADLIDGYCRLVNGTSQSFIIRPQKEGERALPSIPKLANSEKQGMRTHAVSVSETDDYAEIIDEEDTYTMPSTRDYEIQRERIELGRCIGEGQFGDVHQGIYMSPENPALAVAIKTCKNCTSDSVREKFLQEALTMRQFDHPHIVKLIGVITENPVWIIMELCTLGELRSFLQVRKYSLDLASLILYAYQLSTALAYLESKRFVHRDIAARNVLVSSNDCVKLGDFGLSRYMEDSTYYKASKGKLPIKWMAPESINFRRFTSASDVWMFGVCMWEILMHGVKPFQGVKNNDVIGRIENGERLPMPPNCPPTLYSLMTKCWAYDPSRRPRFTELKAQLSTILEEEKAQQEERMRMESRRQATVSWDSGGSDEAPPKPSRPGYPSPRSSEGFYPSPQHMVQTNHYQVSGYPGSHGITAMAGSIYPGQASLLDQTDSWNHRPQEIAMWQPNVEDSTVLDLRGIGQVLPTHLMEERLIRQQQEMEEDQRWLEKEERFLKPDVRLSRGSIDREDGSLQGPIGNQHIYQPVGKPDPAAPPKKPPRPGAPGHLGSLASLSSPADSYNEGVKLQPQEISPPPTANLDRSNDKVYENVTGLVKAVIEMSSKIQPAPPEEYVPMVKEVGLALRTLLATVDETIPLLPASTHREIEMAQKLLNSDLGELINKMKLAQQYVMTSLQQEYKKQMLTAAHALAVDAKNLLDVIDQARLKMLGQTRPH
# From the text: as §1, §2, §3, §4, §5, §6, §7, §8
SMILES,IC50 (SAK) [µM],IC50 (FAK) [µM]
CC(C)[C@@H]1CC2OC2CC/C=C/C(=O)Cc2c(Cl)c(O)cc(O)c2C(=O)O1 (stereo partly shown) [A-4],19,37
O=C1Cc2c(Cl)c(O)cc(O)c2C(=O)O[C@H](c2ccccc2)C/C=C/CCC(Cl)C1 (stereo partly shown) [A-3],25,9
COC1CC/C=C/C[C@H](c2ccccc2)OC(=O)c2c(O)cc(O)c(Cl)c2CC(=O)C1 (stereo partly shown) [A-2],17,14

# Second part, the molecule after the results:
IC50 (SAK) [µM],IC50 (FAK) [µM],SMILES
17,34,O=C1/C=C/CCC2OC2C[C@@H](Cc2ccccc2)OC(=O)c2c(O)cc(O)cc2C1 (stereo partly shown) [A-6]
20,38,O=C1/C=C/CCC2OC2C[C@H](c2ccccc2)OC(=O)c2c(O)cc(O)c(Cl)c2C1 (stereo partly shown) [A-5]
